Each structure is given as a SMILES string. Where a name gives a salt, the structure may show the parent alone.

The assay concerns the target T1, S1P1 receptor (S1P1 expressing RH7777 membranes) (Homo sapiens, UniProt P21453).
T1 construct: expressed in transfected cells; host or cells: RH7777 cells (membranes)
Briefly: S1P1 GTPγS assay. It is filed as biochemical. Particulars: tested in one of the above S1P1 assays (two GTPγS formats). The procedure:
The potencies and efficacies of the compounds of this invention for the S1P1 receptor can be determined by GTPγS assay performed on the human cloned receptor as described herein.
Membrane preparation for S1P1 GTPγS assay
All steps were performed at 4° C. Cells were homogenised within a glass Waring blender for 2 bursts of 15 secs in 200 mls of buffer (50 mM HEPES, 1 mM leupeptin, 25 μg/ml bacitracin, 1 mM EDTA, 1 mM PMSF, 2 μM pepstatin A). The blender was plunged into ice for 5 mins after the first burst and 10-40 mins after the final burst to allow foam to dissipate. The material was then spun at 500 g for 20 mins and the supernatant spun for 36 mins at 48,000 g. The pellet was resuspended in the same buffer as above but without PMSF and pepstatin A. The material was then forced through a 0.6 mm needle, made up to the required volume, (usually x4 the volume of the original cell pellet), aliquoted and stored frozen at −80° C.
S1P1 expressing RH7777 membranes (1.5 μg/well) membranes (1.5 μg/well) were homogenised by passing through a 23 G needle. These were then adhered to WGA-coated SPA beads (0.125 mg/well) in assay buffer (HEPES 20 mM, MgCl2 10 mM, NaCl 100 mM and pH adjusted to 7.4 using KOH 5M). GDP 10 μM FAC and saponin 90 μg/ml FAC were also added
After 30 minutes precoupling on ice, the bead and membrane suspension was dispensed into white Greiner polypropylene LV 384-well plates (5 μl/well), containing […] of compound. 5 μl/well [^35S]-GTPγS (0.5 nM for S1P1 or 0.3 nM for S1P3 final radioligand concentration) made in assay buffer was then added to the plates. The final assay cocktail (10.1 μl) was then sealed, spun on a centrifuge, then read immediately on a Viewlux instrument.
Alternatively, after 30 minutes precoupling on ice, the bead and membrane suspension was mixed with ^35S]-GTPγS (0.5 nM final radioligand concentration) in assay buffer (HEPES 20 mM, MgCl2 10 mM, NaCl 100 mM and pH adjusted to 7.4 using KOH 5M) in a 1:1 ratio. The bead, membrane and radioligand suspension was dispensed into white Greiner polypropylene low volume 384-well plates (10 μl/well), containing 0.1 μl of a solution of test compound in 100% DMSO. The final assay cocktail (10.1 μl) was then sealed, spun on a centrifuge, then read immediately on a Viewlux instrument.

T1 sequence (P21453 whole entry): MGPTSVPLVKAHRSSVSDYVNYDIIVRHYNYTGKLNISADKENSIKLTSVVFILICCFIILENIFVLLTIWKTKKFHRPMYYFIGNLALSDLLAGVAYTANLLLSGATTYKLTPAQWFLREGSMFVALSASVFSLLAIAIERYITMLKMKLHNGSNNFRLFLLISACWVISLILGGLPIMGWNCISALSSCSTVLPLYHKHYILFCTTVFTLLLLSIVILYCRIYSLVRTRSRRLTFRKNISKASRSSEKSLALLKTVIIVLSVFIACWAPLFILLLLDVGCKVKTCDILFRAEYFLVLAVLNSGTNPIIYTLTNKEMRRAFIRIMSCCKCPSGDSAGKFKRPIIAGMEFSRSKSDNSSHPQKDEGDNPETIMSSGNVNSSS

On to `CC(=O)NCCN1CCc2ccc(-c3noc(-c4ccc(OC(C)C)c(C#N)c4)n3)cc2CC1` [Example 101, N-{2-[7-(5-{3-cyano-4-[(1-methylethyl)oxy]phenyl}-1,2,4-oxadiazol-3-yl)-1,2,4,5-tetrahydro-3H-3-benzazepin-3-yl]ethyl}acetamide], for which the EC50 (in general, the concentration giving half of the maximal effect) is ≤ 10 nM.

With `Cc1c(-c2nnc(-c3ccc(OC(C)C)c(C#N)c3)s2)ccc2c1CCN(CCO)C2` [Example 15, 5-{5-[2-(2-Hydroxyethyl)-5-methyl-1,2,3,4-tetrahydro-6-isoquinolinyl]-1,3,4-thiadiazol-2-yl}-2-[(1-methylethyl)oxy]benzonitrile], the EC50 was ≤ 100 nM.

`N#Cc1cc(-c2nc(-c3ccc4c(c3)CCN(CC(O)CO)CC4)no2)ccc1N1CCC(F)C1` (stereo not drawn) [Example 55, 5-{3-[3-(2,3-dihydroxypropyl)-2,3,4,5-tetrahydro-1H-3-benzazepin-7-yl]-1,2,4-oxadiazol-5-yl}-2-(3-fluoro-1-pyrrolidinyl)benzonitrile]: the EC50 is ≤ 1000 nM.

For `COCCN1CCc2ccc(-c3noc(-c4ccc(OC(C)C)c(C#N)c4)n3)cc2CC1` [Example 21, 2-[(1-Methylethyl)oxy]-5-(3-{3-[2-(methyloxy)ethyl]-2,3,4,5-tetrahydro-1H-3-benzazepin-7-yl}-1,2,4-oxadiazol-5-yl)benzonitrile], the EC50 was ≤ 100 nM.

Consider `CCCNc1ncc(-c2nc(-c3ccc4c(c3C)CCN(C[C@H](O)CO)CC4)no2)cc1C#N` [Example 145, 5-(3-{34[(2S)-2,3-dihydroxypropyl]-6-methyl-2,3,4,5-tetrahydro-1H-3-benzazepin-7-yl}-1,2,4-oxadiazol-5-yl)-2-(propylamino)-3-pyridinecarbonitrile], for which the EC50 is ≤ 1000 nM.

As to `COCCN1CCc2ccc(-c3nnc(-c4ccc(OC(C)C)c(C#N)c4)s3)cc2CC1` [Example 30, 2-[(1-Methylethyl)oxy]-5-(5-{3-[2-(methyloxy)ethyl]-2,3,4,5-tetrahydro-1H-3-benzazepin-7-yl}-1,3,4-thiadiazol-2-yl)benzonitrile hydrochloride], the 50% effective concentration (EC50) was ≤ 1000 nM.

In the case of `CC(C)Oc1ccc(-c2nc(-c3cccc4c3CCN(CC(O)CO)CC4)no2)cc1C#N` (stereo not drawn) [Example 35, 5-{3-[3-(2,3-Dihydroxypropyl)-2,3,4,5-tetrahydro-1H-3-benzazepin-6-yl]-1,2,4-oxadiazol-5-yl}-2-[(1-methylethyl)oxy]benzonitrile hydrochloride], the EC50 is ≤ 100 nM.

Turning to `CC(C)Oc1ccc(-c2nc(-c3cccc4c3CCN(CCCO)CC4)no2)cc1C#N` [Example 33, 5-{3-[3-(3-Hydroxypropyl)-2,3,4,5-tetrahydro-1H-3-benzazepin-6-yl]-1,2,4-oxadiazol-5-yl}-2-[(1-methylethyl)oxy]benzonitrile], the EC50 was ≤ 100 nM.

On to `CC(C)Oc1ccc(-c2nc(-c3ccc4c(c3)CCN(C(=O)[C@H](N)[C@@H](C)O)CC4)no2)cc1C#N` [Example 58, 5-[3-(3-D-allothreonyl-2,3,4,5-tetrahydro-1H-3-benzazepin-7-yl)-1,2,4-oxadiazol-5-yl]-2-[(1-methylethyl)oxy]benzonitrile], for which the EC50 is ≤ 100 nM.

For `Cc1c(-c2nnc(-c3ccc(OC(C)C)c(C#N)c3)s2)ccc2c1CCN(CCCO)C2` [Example 16, 5-{5-[2-(3-Hydroxypropyl)-5-methyl-1,2,3,4-tetrahydro-6-isoquinolinyl]-1,3,4-thiadiazol-2-yl}-2-[(1-methylethyl)oxy]benzonitrile], the EC50 is ≤ 1000 nM.

In the case of `CC(C)Oc1ccc(-c2nc(-c3ccc4c(c3)CCN(C(=O)[C@](C)(N)CO)CC4)no2)cc1C#N` [Example 84, 2-[(1-methylethyl)oxy]-5-{3-[3-(2-methyl-D-seryl)-2,3,4,5-tetrahydro-1H-3-benzazepin-7-yl]-1,2,4-oxadiazol-5-yl}benzonitrile], the EC50 is ≤ 1000 nM.

Regarding `CCOc1ncc(-c2nc(-c3ccc4c(c3)CCN(C(=O)CN)CC4)no2)cc1C#N` [Example 113, 2-(ethyloxy)-5-[3-(3-glycyl-2,3,4,5-tetrahydro-1H-3-benzazepin-7-yl)-1,2,4-oxadiazol-5-yl]-3-pyridinecarbonitrile], the EC50 was ≤ 1000 nM.

As for `CC(C)Oc1ccc(-c2nc(-c3ccc4c(c3)CCN(CC(O)CO)CC4)no2)cc1C#N` (stereo not drawn) [Example 27, 5-{3-[3-(2,3-Dihydroxypropyl)-2,3,4,5-tetrahydro-1H-3-benzazepin-7-yl]-1,2,4-oxadiazol-5-yl}-2-[(1-methylethyl)oxy]benzonitrile], the half-maximal effective concentration (EC50) was ≤ 100 nM.

For the compound `COC(=O)NCCCN1CCc2ccc(-c3noc(-c4ccc(OC(C)C)c(C#N)c4)n3)cc2CC1` [Example 102, methyl {3-[7-(5-{3-cyano-4-[(1-methylethyl)oxy]phenyl}-1,2,4-oxadiazol-3-yl)-1,2,4,5-tetrahydro-3H-3-benzazepin-3-yl]propyl}carbamate], the EC50 was ≤ 1000 nM.

As to `Cc1c(-c2noc(-c3ccc(OC(C)C)c(C#N)c3)n2)ccc2c1CCN(C(CO)CO)C2` [Example 66, 5-(3-{2-[2-hydroxy-1-(hydroxymethyl)ethyl]-5-methyl-1,2,3,4-tetrahydro-6-isoquinolinyl}-1,2,4-oxadiazol-5-yl)-2-[(1-methylethyl)oxy]benzonitrile hydrochloride], the EC50 is ≤ 100 nM.

Consider `CC(C)Nc1ccc(-c2nc(-c3ccc4c(c3)CCN(C(=O)CN)CC4)no2)cc1C#N` [Example 52, 5-[3-(3-glycyl-2,3,4,5-tetrahydro-1H-3-benzazepin-7-yl)-1,2,4-oxadiazol-5-yl]-2-[(1-methylethyl)amino]benzonitrile], for which the EC50 is ≤ 100 nM.

As for `CC(C)Oc1ccc(-c2nc(-c3ccc4c(c3)CCN(C(=O)[C@@H](N)[C@@H](C)O)CC4)no2)cc1C#N` [Example 59, 2-[(1-methylethyl)oxy]-5-[3-(3-L-threonyl-2,3,4,5-tetrahydro-1H-3-benzazepin-7-yl)-1,2,4-oxadiazol-5-yl]benzonitrile], the EC50 was ≤ 100 nM.

Regarding `CCCNc1ncc(-c2nc(-c3ccc4c(c3C)CCN(C(CO)CO)CC4)no2)cc1C#N` [Example 149, 5-(3-{3-[2-hydroxy-1-(hydroxymethyl)ethyl]-6-methyl-2,3,4,5-tetrahydro-1H-3-benzazepin-7-yl}-1,2,4-oxadiazol-5-yl)-2-(propylamino)-3-pyridinecarbonitrile], the EC50 is ≤ 1000 nM.

As to `CCCOc1ncc(-c2nc(-c3ccc4c(c3)CCN(C(=O)CN)CC4)no2)cc1C#N` [Example 107, 5-[3-(3-glycyl-2,3,4,5-tetrahydro-1H-3-benzazepin-7-yl)-1,2,4-oxadiazol-5-yl]-2-(propyloxy)-3-pyridinecarbonitrile], the EC50 is ≤ 1000 nM.

Regarding `CCOc1ncc(-c2nc(-c3ccc4c(c3)CCN(C(CO)CO)CC4)no2)cc1C#N` [Example 110, 2-(ethyloxy)-5-(3-{3-[2-hydroxy-1-(hydroxymethyl)ethyl]-2,3,4,5-tetrahydro-1H-3-benzazepin-7-yl}-1,2,4-oxadiazol-5-yl)-3-pyridinecarbonitrile], the EC50 is ≤ 1000 nM.

Take `Cc1c(-c2nnc(-c3ccc(OC(C)C)c(C#N)c3)s2)ccc2c1CCN(CCC(=O)N(C)C)C2` [Example 12, 3-[6-(5-{3-Cyano-4-[(1-methylethyl)oxy]phenyl}-1,3,4-thiadiazol-2-yl)-5-methyl-3,4-dihydro-2(1H)-isoquinolinyl]-N,N-dimethylpropanamide]: the EC50 is ≤ 100 nM.

In the case of `CC(C)Oc1ccc(-c2nc(-c3ccc4c(c3)CCN(C(=O)CNCCO)CC4)no2)cc1C#N` [Example 86, 5-(3-{3-[N-(2-hydroxyethyl)glycyl]-2,3,4,5-tetrahydro-1H-3-benzazepin-7-yl}-1,2,4-oxadiazol-5-yl)-2-[(1-methylethyl)oxy]benzonitrile hydrochloride], the EC50 was ≤ 100 nM.

For `CCCNc1ncc(-c2nc(-c3ccc4c(c3)CCN(C[C@H](O)CO)CC4)no2)cc1C#N` [Example 143, 5-(3-{34[(2S)-2,3-dihydroxypropyl]-2,3,4,5-tetrahydro-1H-3-benzazepin-7-yl}-1,2,4-oxadiazol-5-yl)-2-(propylamino)-3-pyridinecarbonitrile hydrochloride], the 50% effective concentration (EC50) was ≤ 1000 nM.

Take `CC(C)Oc1ncc(-c2nc(-c3ccc4c(c3)CCN(C(CO)CO)CC4)no2)cc1C#N` [Example 95, 5-(3-{3-[2-hydroxy-1-(hydroxymethyl)ethyl]-2,3,4,5-tetrahydro-1H-3-benzazepin-7-yl}-1,2,4-oxadiazol-5-yl)-2-[(1-methylethyl)oxy]-3-pyridinecarbonitrile]: the 50% effective concentration (EC50) is ≤ 10 nM.

(Values after US20120101083A1, “S1P1 AGONISTS COMPRISING A BICYCLIC N-CONTAINING RING” (GLAXO GROUP LIMITED, priority 2009, published 2012).)
